In US8859574B2 (IRM LLC, priority 2008, dated 2014) one finds IC50 data, which are given here for 28 compounds.

Molecules are shown by their SMILES.

The target in this experiment is T1, IGF-1R Ba/F3 (Homo sapiens, UniProt P08069).
T1 construct: fused on or other part: TEL- (or BCR-) IGF-1R in Ba/F3: the kinase part holds the site
In words: Ba/F3 Cell Viability Inhibition Assay (IGF-1R Ba/F3). It counts as cell-based, murine. As to conditions: Tel-TK transformed Ba/F3 cells, 48 hours, Britelite luminescence. In a few lines: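 A 48 h compound treatment at 37 °C (3750 cells/well) was followed by Britelite luminescence to measure viability. Cells were Ba/F3 pro-B cells, IL-3-independent via TEL-fused IGF-1R kinase transduction. A logistic fit gave IC50 as 50% viability relative to DMSO control.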

T1 sequence (P08069 999-1274 limits assumed): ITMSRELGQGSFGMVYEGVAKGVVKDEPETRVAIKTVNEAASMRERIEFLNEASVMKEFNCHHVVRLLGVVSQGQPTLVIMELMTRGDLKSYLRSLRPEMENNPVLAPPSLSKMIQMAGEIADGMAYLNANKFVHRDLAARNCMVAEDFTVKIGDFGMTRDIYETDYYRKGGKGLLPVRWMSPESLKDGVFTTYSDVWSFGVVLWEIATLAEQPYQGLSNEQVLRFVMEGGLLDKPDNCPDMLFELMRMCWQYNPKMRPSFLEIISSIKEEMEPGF

For the compound `Cc1cc(Nc2nc(Nc3cc(C)c(C4CCN(S(=O)(=O)CCCN5CCC5)CC4)cc3C)ncc2Cl)n[nH]1` [Compound 195, N2-(4-(1-(3-(azetidin-1-yl)propylsulfonyl)piperidin-4-yl)-2,5-dimethylphenyl)-5-chloro-N4-(5-methyl-1H-pyrazol-3-yl)pyrimidine-2,4-diamine], half-maximal inhibition (IC50) was put at 27 nM.

On to `Cc1cc(Nc2ncc(Cl)c(Nc3cc(C(F)(F)F)[nH]n3)n2)c(F)cc1C1CCNCC1` [Compound 171, 5-chloro-N2-(2-fluoro-5-methyl-4-(piperidin-4-yl)phenyl)-N4-(5-(trifluoromethyl)-1H-pyrazol-3-yl)pyrimidine-2,4-diamine], for which the half-inhibitory concentration (IC50) (as a rule, the midpoint of a concentration-inhibition curve) amounted to 67 nM. In the case of `Cc1cc(Nc2nc(Nc3cc(C)c(C4CCCCN4Cc4c(C)noc4C)cc3C)ncc2Cl)n[nH]1` (stereo not shown) [Compound 191, 5-chloro-N2-(4-(1-((3,5-dimethylisoxazol-4-yl)methyl)piperidin-2-yl)-2,5-dimethylphenyl)-N4-(5-methyl-1H-pyrazol-3-yl)pyrimidine-2,4-diamine], the concentration for half-maximal inhibition (IC50) stood at 113 nM. `Cc1cc(Nc2nc(Nc3cc(C)c(C4CCN(C(=O)CCN5CCOCC5)CC4)cc3C)ncc2Cl)n[nH]1` [Compound 225, 1-(4-(4-(5-Chloro-4-(5-methyl-1H-pyrazol-3-ylamino)pyrimidin-2-ylamino)-2,5-dimethylphenyl)piperidin-1-yl)-3-morpholinopropan-1-one] yielded an IC50 of 17 nM. Compound `Cc1cc(Nc2nc(Nc3cc(C(F)(F)F)c(N4CCOCC4)cc3F)ncc2Cl)n[nH]1` [Compound 153, 5-chloro-N2-(2-fluoro-4-morpholino-5-(trifluoromethyl)phenyl)-N4-(5-methyl-1H-pyrazol-3-yl)pyrimidine-2,4-diamine] had a concentration for half-maximal inhibition (IC50) of 91 nM. To `COC(=O)c1cc(Nc2ncc(Cl)c(Nc3cc(C)[nH]n3)n2)c(C)cc1C1CCN(C)CC1` [Compound 287, methyl 5-(5-chloro-4-(5-methyl-1H-pyrazol-3-ylamino)pyrimidin-2-ylamino)-4-methyl-2-(1-methylpiperidin-4-yl)benzoate] belongs 27 nM; to `Cc1cc(Nc2nc(Nc3cc(C)c(C4CCN(CC5CC5(F)F)CC4)cc3C)ncc2Cl)n[nH]1` (stereo not shown) [Compound 249, 5-chloro-N2-(4-(1-((2,2-difluorocyclopropyl)methyl)piperidin-4-yl)-2,5-dimethylphenyl)-N4-(5-methyl-1H-pyrazol-3-yl)pyrimidine-2,4-diamine], 32 nM; to `Cc1cc(Nc2nc(Nc3cc(C)c(C4CCN(C(=O)C(C)N)CC4)cc3F)ncc2Cl)n[nH]1` (stereo not shown) [Compound 86, 2-amino-1-(4-(4-(5-chloro-4-(5-methyl-1H-pyrazol-3-ylamino)pyrimidin-2-ylamino)-5-fluoro-2-methylphenyl)piperidin-1-yl)propan-1-one], 141 nM. Compound `Cc1cc(Nc2nc(Nc3cc(C)c(C4CCN(C(=O)[C@@H]5COCCN5)CC4)cc3F)ncc2Cl)n[nH]1` [Compound 143, (S)-(4-(4-(5-chloro-4-(5-methyl-1H-pyrazol-3-ylamino)pyrimidin-2-ylamino)-5-fluoro-2-methylphenyl)piperidin-1-yl)(morpholin-3-yl)methanone] returned a 50% inhibitory concentration (IC50) of 71 nM. Turning to `Cc1cc(Nc2nc(Nc3cc(C)c(C4CCN(C(=O)[C@@H]5CCN5)CC4)cc3F)ncc2Cl)n[nH]1` [Compound 132, (S)-azetidin-2-yl(4-(4-(5-chloro-4-(5-methyl-1H-pyrazol-3-ylamino)pyrimidin-2-ylamino)-5-fluoro-2-methylphenyl)piperidin-1-yl)methanone], the midpoint of inhibition, the IC50, lay at 161 nM.

The compound `Cc1cc(Nc2nc(Nc3cc(C)c(C4CCN(C(=O)[C@@H]5CC(O)CN5C)CC4)cc3F)ncc2Cl)n[nH]1` (stereo partly drawn) [Compound 128, (4-(4-(5-chloro-4-(5-methyl-1H-pyrazol-3-ylamino)pyrimidin-2-ylamino)-5-fluoro-2-methylphenyl)piperidin-1-yl)((2S)-4-hydroxy-1-methylpyrrolidin-2-yl)methanone] displayed a 50% inhibitory concentration (IC50) of 175 nM. Turning to `Cc1cc(Nc2nc(Nc3cc(C)c(C4CCN(CCC(=O)N5CCCC5)CC4)cc3C)ncc2Cl)n[nH]1` [Compound 238, 3-(4-(4-(5-chloro-4-(5-methyl-1H-pyrazol-3-ylamino)pyrimidin-2-ylamino)-2,5-dimethylphenyl)piperidin-1-yl)-1-(pyrrolidin-1-yl)propan-1-one], the half-inhibitory concentration (IC50) was 39 nM. To `CCNC(=O)C(CC)N1CCC(c2cc(C)c(Nc3ncc(Cl)c(Nc4cc(C)[nH]n4)n3)cc2C)CC1` (stereo not shown) [Compound 190, 2-(4-(4-(5-chloro-4-(5-methyl-1H-pyrazol-3-ylamino)pyrimidin-2-ylamino)-2,5-dimethylphenyl)piperidin-1-yl)-N-ethylbutanamide] belongs 7 nM. To `Cc1cc(Nc2nc(Nc3cc(C)c(C4CCN(C=O)CC4)cc3F)ncc2Cl)n[nH]1` [Compound 206, 4-(4-(5-chloro-4-(5-methyl-1H-pyrazol-3-ylamino)pyrimidin-2-ylamino)-5-fluoro-2-methylphenyl)piperidine-1-carbaldehyde] belongs 30 nM. The compound `Cc1cc(Nc2nc(Nc3cc(C)c(C4CCN(CCc5nc(C(C)C)no5)CC4)cc3C)ncc2Cl)n[nH]1` [Compound 269, 5-Chloro-N2-(4-(1-(2-(3-isopropyl-1,2,4-oxadiazol-5-yl)ethyl)piperidin-4-yl)-2,5-dimethylphenyl)-N4-(5-methyl-1H-pyrazol-3-yl)pyrimidine-2,4-diamine] registered an IC50 of 39 nM. Regarding `Cc1cc(Nc2nc(Nc3cc(C)c(C4CCN(Cc5cccnc5)CC4)cc3F)ncc2Cl)n[nH]1` [Compound 297, 5-chloro-N2-(2-fluoro-5-methyl-4-(1-(pyridin-3-ylmethyl)piperidin-4-yl)phenyl)-N4-(5-methyl-1H-pyrazol-3-yl)pyrimidine-2,4-diamine], the half-inhibitory concentration (IC50) stood at 79 nM. To `Cc1cc(C2CCN(C(=O)CN(C)C)CC2)c(C)cc1Nc1ncc(Cl)c(Nc2cc(C(F)(F)F)[nH]n2)n1` [Compound 223, 1-(4-(4-(5-chloro-4-(5-(trifluoromethyl)-1H-pyrazol-3-ylamino)pyrimidin-2-ylamino)-2,5-dimethylphenyl)piperidin-1-yl)-2-(dimethylamino)ethanone] belongs 36 nM. In turn, `Cc1cc(Nc2nc(Nc3cc(C)c(C4CCN(C(N)=O)CC4)cc3C)ncc2Cl)n[nH]1` [Compound 72, 4-(4-(5-chloro-4-(5-methyl-1H-pyrazol-3-ylamino)pyrimidin-2-ylamino)-2,5-dimethylphenyl)piperidine-1-carboxamide] registered an IC50 of 6 nM. To `Cc1cc(Nc2nc(Nc3cc(C)c(C4CCN(CCCS(=O)(=O)N5CCCC5)CC4)cc3F)ncc2Cl)n[nH]1` [Compound 244, 5-chloro-N2-(2-fluoro-5-methyl-4-(1-(3-(pyrrolidin-1-ylsulfonyl)propyl)piperidin-4-yl)phenyl)-N4-(5-methyl-1H-pyrazol-3-yl)pyrimidine-2,4-diamine] belongs 84 nM.

Regarding `Cc1cc(Nc2nc(Nc3cc(C)c(C4CCN(C(=O)CN5C(C)(C)CCCC5(C)C)CC4)cc3C)ncc2Cl)n[nH]1` [Compound 104, 1-(4-(4-(5-chloro-4-(5-methyl-1H-pyrazol-3-ylamino)pyrimidin-2-ylamino)-2,5-dimethylphenyl)piperidin-1-yl)-2-(2,2,6,6-tetramethylpiperidin-1-yl)ethanone], the concentration for half-maximal inhibition (IC50) was determined as 18 nM. To `Cc1cc(C2CCNCC2)c(C)cc1Nc1ncc(Cl)c(Nc2cc(C3CC3)[nH]n2)n1` [Compound 18, 5-chloro-N4-(5-cyclopropyl-1H-pyrazol-3-yl)-N2-(2,5-dimethyl-4-(piperidin-4-yl)phenyl)pyrimidine-2,4-diamine] belongs 95 nM; to `Cc1cc(Nc2nc(Nc3cc(C)c(C4CCN(S(=O)(=O)CCCN5CC[C@@H](O)C5)CC4)cc3C)ncc2Cl)n[nH]1` [Compound 234, (R)-1-(3-(4-(4-(5-chloro-4-(5-methyl-1H-pyrazol-3-ylamino)pyrimidin-2-ylamino)-2,5-dimethylphenyl)piperidin-1-ylsulfonyl)propyl)pyrrolidin-3-ol], 73 nM. Compound `Cc1cc(Nc2ncc(Cl)c(Nc3cc(C4CC4)[nH]n3)n2)c(F)cc1C1CCNCC1` [Compound 17, 5-chloro-N4-(5-cyclopropyl-1H-pyrazol-3-yl)-N2-(2-fluoro-5-methyl-4-(piperidin-4-yl)phenyl)pyrimidine-2,4-diamine] returned an IC50 of 160 nM. `Cc1cc(Nc2nc(Nc3cc(C)c(C4CCN(C5CNC5)CC4)cc3F)ncc2Cl)n[nH]1` [Compound 296, N2-(4-(1-(azetidin-3-yl)piperidin-4-yl)-2-fluoro-5-methylphenyl)-5-chloro-N4-(5-methyl-1H-pyrazol-3-yl)pyrimidine-2,4-diamine] gave an IC50 of 101 nM.

For `Cc1cc(C2CCNCC2)c(C)cc1Nc1ncc(Cl)c(Nc2cc(C(F)(F)F)[nH]n2)n1` [Compound 215, 5-chloro-N2-(2,5-dimethyl-4-(piperidin-4-yl)phenyl)-N4-(5-(trifluoromethyl)-1H-pyrazol-3-yl)pyrimidine-2,4-diamine], the IC50 was 47 nM. `CCc1noc(CN2CCC(c3cc(C)c(Nc4ncc(Cl)c(Nc5cc(C)[nH]n5)n4)cc3C)CC2)n1` [Compound 303, 5-chloro-N2-(4-(1-((3-ethyl-1,2,4-oxadiazol-5-yl)methyl)piperidin-4-yl)-2,5-dimethylphenyl)-N4-(5-methyl-1H-pyrazol-3-yl)pyrimidine-2,4-diamine] yielded an IC50 of 6 nM. `Cc1cc(Nc2nc(Nc3cc(C)c(C4CCN(CC(N)=O)CC4)cc3F)ncc2Cl)n[nH]1` [Compound 39, 2-(4-(4-(5-Chloro-4-(5-methyl-1H-pyrazol-3-ylamino)pyrimidin-2-ylamino)-5-fluoro-2-methylphenyl)piperidin-1-yl)acetamide] returned an IC50 of 19 nM. To `Cc1cc(Nc2nc(Nc3cc(C)c(C4CCN(C5=CC(=O)CC5)CC4)cc3F)ncc2Cl)n[nH]1` [Compound 282, 3-(4-(4-(5-Chloro-4-(5-methyl-1H-pyrazol-3-ylamino)pyrimidin-2-ylamino)-5-fluoro-2-methylphenyl)piperidin-1-yl)cyclopent-2-en-one] belongs 48 nM.
